{
  "source": "patent US20070167419A1",
  "about": "“TREATMENT FOR EMBOLIC STROKE” (priority 2005, published 2007)",
  "type_in_all_cases": "in vivo",
  "key": {"[1]": {"test_system": "small clot embolic strokes in rabbits", "assay": "rabbit small clot embolic stroke model (RSCEM), quantal analysis of behavior", "conditions": "for Observation: ABHS 25 mg/kg IV; for Abnorm / Norm: ABHS 25 mg/kg, 5 min"}, "[2]": {"test_system": "small clot embolic strokes in rabbits", "assay": "rabbit small clot embolic stroke model (RSCEM), quantal analysis of behavior", "from_the_text": "The invention used a rabbit small clot embolic stroke model (RSCEM) that reproduces many facets of human AIS including a well-defined clinical endpoint. The RSCEM utilizes administration of a suspension of small blood clots to induce strokes, and behavioral deficits that can be measured quantitatively. Moreover, the RSCEM is useful to conduct studies testing the effects of single drugs or drug combinations such as a neuroprotective agent (e.g., NXY-059) plus a thrombolytic (Tenecteplase, Alteplase, Desmoteplase and the like). Since it is likely that a drug combination will be used for patient management it is important to determine whether there are any interactions (positive or negative) between the compounds when administered following embolic strokes.\nMethods: Male New Zealand white rabbits were anesthetized using halothane (5% induction, 2% maintenance by facemask), the bifurcation of the right carotid artery was exposed and the external carotid was ligated just distal to the bifurcation, where a catheter was inserted into the common carotid and secured with ligatures. The incision was closed around the catheter with the distal ends left accessible outside the neck; the catheter was filled with heparinized saline and plugged with an injection cap. Rabbits were allowed to recover from anesthesia for a minimum of 3 h until they awoke and behaved normally.\nFor the RSCEM, microclots were prepared from blood drawn from a donor rabbit and allowed to clot at 37° C. All rabbits in the study received injections of the same sized microclots. For embolization, clot particles were rapidly injected through the carotid catheter and both the syringe and catheter were flushed with 5 ml of normal saline.\nTreatment Regimens: (A) Dose-Response Curve: NXY-059 was administered IV at a dose of 0.1-100 mg/kg infused over 30 min beginning 1 hour following embolization. (B) Therapeutic Window: NXY-059 (100 mg/kg) was given beginning 1, 3 or 6 hours following embolization. (C) Tenecteplase Dosing: Tenecteplase was administered IV at a dose of 0.9 mg/kg as a bolus injection given over one minute was administered 1 or 6 hours following embolization. (D) Combination studies: NXY-059 was administered IV at a dose of 100 mg/kg infused over 30 min and Tenecteplase was administered IV at a dose of 0.9 mg/kg beginning 1 or 6 hours following embolization.\nQuantal Dose-Response Analysis: For the RSCEM, a quantal dose-response data analysis technique was used. A wide range of lesion volumes is induced to generate both normal and abnormal animals. Using 3 or more different doses of microclots generated each quantal analysis curve. […] Each animal is rated as either normal or abnormal (including dead animals), and inter-rater variability is very low (<5%). […] With this simple rating system, the composite result for a group of animals is quite reproducible. The P50 values are then calculated. These parameters are measures of the amount of microclots (in mg) that produce neurologic dysfunction in 50% of a group of animals. A separate curve is generated for each treatment condition that was tested. The data were analyzed using the t-test, which included the Bonferroni correction where appropriate.\nUsing the RSCEM model as described above male New Zealand white rabbits weighing 2.2-2.6 Kg were anesthetized and a catheter was inserted into the common carotid artery through which microclots were injected. Briefly, the bifurcation of one carotid artery was exposed and the external carotid was ligated just distal to the bifurcation. A catheter was inserted into the common carotid and secured with ligatures. The incision was closed around the catheter so that the distal end was accessible outside the animal's neck. The catheter was then filled with heparinized saline and plugged with an injection cap. Rabbits were allowed to recover from anesthesia until they were awake and behaving normally. […]"}, "[3]": {"test_system": "spinal cord ischemia induced by temporary occlusion of the infrarenal aorta", "assay": "rabbit reversible spinal cord ischemia model (RSCIM)", "experimental": "In a rabbit reversible spinal cord ischemia model (RSCIM). ABHS was administered (25 mg/kg) intravenously (i.v.) 5 or 30 min following the start of occlusion to groups of rabbits exposed to ischemia induced by temporary occlusion of the infrarenal aorta. The group P50 represents the duration of ischemia (min) associated with a 50% probability of resultant permanent paraplegia."}, "[4]": {"conditions": "ABHS 25 mg/kg, 5 min, clot dose 0.38 mg"}},
  "note": "Entries after “also recorded” stand apart in the source; their conditions may differ.",
  "data": [
    {"molecule": "CC(=O)[C@H]1CC[C@H]2[C@@H]3CC[C@@H]4C[C@H](OC(=O)CCC(=O)O)CC[C@]4(C)[C@H]3CC[C@]12C", "note": "[ABHS, 3-alpha-ol-5-beta-pregnan-20-one hemisuccinate]", "values": [
      {"measurement": "Observation", "setting": "[1]; 5 min following embolization", "result": "Sedation"},
      {"measurement": "Observation", "setting": "[1]; 180 min following embolization", "result": "Sedation"},
      {"measurement": "Abnorm", "setting": "[1]; clot dose 0.53 mg", "result": 0},
      {"measurement": "Norm", "setting": "[1]; clot dose 0.53 mg", "result": 1},
      {"measurement": "Abnorm", "setting": "[1]; clot dose 1.42 mg", "result": 0},
      {"measurement": "Norm", "setting": "[1]; clot dose 1.42 mg", "result": 1},
      {"measurement": "Abnorm", "setting": "[1]; clot dose 1.60 mg", "result": 0},
      {"measurement": "Norm", "setting": "[1]; clot dose 1.60 mg", "result": 1},
      {"measurement": "Abnorm", "setting": "[1]; clot dose 1.72 mg", "result": 0},
      {"measurement": "Norm", "setting": "[1]; clot dose 1.72 mg", "result": 1},
      {"measurement": "Norm", "setting": "[1]; clot dose 1.99 mg", "result": 0},
      {"measurement": "Norm", "setting": "[1]; clot dose 2.21 mg", "result": 0},
      {"measurement": "Abnorm", "setting": "[1]; clot dose 2.31 mg", "result": 0},
      {"measurement": "Norm", "setting": "[1]; clot dose 2.31 mg", "result": 1},
      {"measurement": "Abnorm", "setting": "[1]; clot dose 2.89 mg", "result": 1},
      {"measurement": "Norm", "setting": "[1]; clot dose 2.89 mg", "result": 0},
      {"measurement": "Abnorm", "setting": "[1]; clot dose 2.97 mg", "result": 0},
      {"measurement": "Abnorm", "setting": "[1]; clot dose 3.38 mg", "result": 1},
      {"measurement": "Norm", "setting": "[1]; clot dose 3.38 mg", "result": 0},
      {"measurement": "Abnorm", "setting": "[1]; clot dose 3.88 mg", "result": 1},
      {"measurement": "Norm", "setting": "[1]; clot dose 3.88 mg", "result": 0},
      {"measurement": "Norm", "setting": "[1]; clot dose 4.35 mg", "result": 0},
      {"measurement": "Abnorm", "setting": "[1]; clot dose 4.67 mg", "result": 0},
      {"measurement": "Norm", "setting": "[1]; clot dose 4.67 mg", "result": 1},
      {"measurement": "Observation", "setting": "[2]; ABHS 25 mg/kg IV, 60 min following embolization", "result": "Sedation"},
      {"measurement": "Abnorm (rabbits rated behaviorally abnormal)", "setting": "[2]; [4]", "result": 0},
      {"measurement": "Norm (rabbits rated behaviorally normal)", "setting": "[2]; [4]", "result": 1},
      {"measurement": "Abnorm", "setting": "[2]; ABHS 25 mg/kg, 5 min, clot dose 1.99 mg", "result": 1},
      {"measurement": "Abnorm", "setting": "[2]; ABHS 25 mg/kg, 5 min, clot dose 2.21 mg", "result": 1},
      {"measurement": "Norm", "setting": "[2]; ABHS 25 mg/kg, 5 min, clot dose 2.97 mg", "result": 1},
      {"measurement": "Abnorm", "setting": "[2]; ABHS 25 mg/kg, 5 min, clot dose 4.35 mg", "result": 1},
      {"measurement": "effect on therapeutic window of tPA", "setting": "[2]; FIG. 7", "result": "increases the therapeutic window for tPA"},
      {"measurement": "effect on tolerance to ischemia", "setting": "[3]; ABHS administered 30 min following the start of occlusion", "result": "increased the tolerance to ischemia"},
      {"measurement": "persistence of effect", "setting": "[3]; ABHS injected 5 min following the start of ischemia and again 24 h after ischemia", "result": "persistent effect of the drug at 48 h"}
    ]},
    {"molecule": "CC(C)(C)[N+]([O-])=Cc1ccc(S(=O)(=O)O)cc1S(=O)(=O)O.[Na].[Na]", "note": "[NXY-059, disodium 2,4-disulfophenyl-N-tert-butylnitrone]", "values": [
      {"measurement": "P50", "setting": "[2]; NXY-059 100 mg/kg, 6 hours following embolization, not significant vs vehicle", "result": "1.35 ± 0.37", "unit": "mg"},
      {"measurement": "effect on P50 vs vehicle", "setting": "[2]; NXY-059 doses from 1-100 mg/kg, 1 hour following embolization, p<0.05", "result": "significantly increased the P50"},
      {"measurement": "effect on P50 vs vehicle", "setting": "[2]; NXY-059 lower dose (0.10 mg/kg), 1 hour following embolization, p>0.05", "result": "did not"}
    ]},
    {"molecule": "CC12CC3CC(C)(C1)CC(N)(C3)C2", "note": "[memantine]", "values": [
      {"measurement": "effect on efficacy of low-dose tPA", "setting": "[2]; FIG. 8", "result": "increases the efficacy of low-dose tPA"}
    ]},
    {"molecule": "Tenecteplase", "values": [
      {"measurement": "P50", "setting": "[2]; Tenecteplase 0.9 mg/kg IV bolus, 1 hour following embolization, 24 hours", "result": "2.76 ± 0.37", "unit": "mg"},
      {"measurement": "increase of P50 over control", "setting": "[2]; Tenecteplase 0.9 mg/kg, 1 hour following embolization", "result": 130, "unit": "%"},
      {"measurement": "effect on P50 vs control", "setting": "[2]; Tenecteplase 0.9 mg/kg, 6 hours following embolization", "result": "did not increase the P50 compared to control; also recorded: neither Tenecteplase, nor NXY-059, significantly (p>0.05) affect P50 values"}
    ]}
  ]
}
